Tests used:
[1] = tested on: C. albicans 98-17 and C. albicans 98-234; assay: In vitro susceptibility, broth microdilution, both isolates; type: cell-based; conditions: Candida albicans
Experimental: (§1) C. albicans 98-17 and C. albicans 98-234 were maintained on SDA plates. Susceptibility of yeast isolates was performed using broth microdilution in RPMI-1640 (supplemented with 0.165 M morpholinepropanesulfonic acid, buffered to pH 7.0) according to procedures recommended in NCCLS M27-A2 (25). Test drug solutions were incubated with yeast inoculum at 35° C. in 96-well plates for a 24 h period. All measurements were done in triplicate. Percent yeast growth relative to drug-free control was determined by measuring optical density (OD) at 650 nm, using the Microplate EL 312e plate reader. […] The MIC values were expressed as a mean of three determinations.
(§2) Calculation of a combination index was done in two steps. First, inhibition of fungal growth in response to varying concentrations of single-drug was fit to median-effect function:
(§3) where fa is the mean growth inhibition, relative to drug-free control, Dm is the drug concentration for a 50% growth inhibition, and m is the slope-factor describing the dose-response curve. Parameter Dm and m for each drug were estimated by non-linear regression using SigmaPlot (v. 9.0).

C. albicans 98-234 = assay: In vitro susceptibility, broth microdilution (MIC, median-effect fit); type: cell-based; conditions: Candida albicans, 98234, strain 98-234
Experimental: as §1, §2, §3

C. albicans 98-17 = assay: as above; type: cell-based; conditions: Candida albicans, 9817, strain 98-17
Experimental: as §1, §2, §3

4% BSA = 4% BSA (Bos taurus, UniProt P02769); assay: Electronic absorption kinetics at 412 nm upon dilution in serum albumin; type: physicochemical, bovine; conditions: AmB 10 μg/mL
Experimental: Electronic absorption kinetics. Stock solutions containing AmB (micelle encapsulated or dissolved in DMSO) were added to 4% BSA, buffered to pH 7.0 with 10 mM HEPES. The final concentration of AmB was 10 μg/mL. For AmB dissolved in DMSO, the final DMSO content was less than 0.2%. Absorbance spectra were recorded from 300 to 450 nm at room temperature by using the Cary 50 spectrophotometer (Varian, Palo Alto, Calif.). Sequential spectra were acquired at 15 second intervals for the first 5 min; and at 1 minute intervals for an additional 40 minutes. A scan for baseline absorbance was taken before addition of AmB and was subtracted from each spectrum. The change in absorbance at 412 nm, […] was fit to a first-order process of the form A∞−At=a.e^−k.t using non-linear regression (SigmaPlot v.9.0).

[2] = AmB release from PEG-DSPE micelles using equilibrium dialysis; type: physicochemical; conditions: 25° C., 30 μg/mL AmB
Experimental: AmB release from PEG-DSPE micelles using equilibrium dialysis. AmB stock solutions (micelle encapsulated or dissolved in DMSO) were diluted to 30 μg/mL in HEPES buffer or in 4% BSA. These solutions were put in dialysis cassettes (MWCO 7000 g/mol, Pierce) and were placed in excess buffer (5 mM HEPES, pH 7.0). The MWCO of the dialysis membrane was chosen to allow for diffusion of AmB (molecular weight 924.1) while retaining large molecules such as bovine serum albumin (molecular weight 66 kDa) and intact micelles (molecular weight >100 kDa). Near-sink conditions for AmB were maintained by performing the release experiment in a 100-fold excess dialysis buffer. Because AmB is susceptible to degradation, the dialysis buffer was degassed overnight and 20 μg/mL propyl gallate was added as an antioxidant (15, 16). At predetermined time intervals, 100 μL samples were taken and AmB concentration in dialysis cassettes was determined using reversed-phase HPLC. […]
AmB release was fit to a first-order process of the form At/A0=a.e^−k.t by non-linear regression (SigmaPlot v.9.0). […] The half-life t1/2 for AmB release was calculated using t1/2=0.693/k.
For determination of AmB content, 15 μL samples were injected into 4.6 mm×150 mm Eclipse XDB-C8 reversed-phase column (Agilent Technologies) and AmB absorbance detected at 412 nm using the diode array detector. […]

[3] = Critical aggregation concentration (CAC) of AmB; type: physicochemical
[4] = >95% inhibition, 24 h, 35° C., read-out: Minimum Inhibitory Concentrations (MIC)
[5] = median-effect fit, read-out: Dm × 10^3 (concentration for 50% growth inhibition)

Chain of 4% BSA (P02769 25-607): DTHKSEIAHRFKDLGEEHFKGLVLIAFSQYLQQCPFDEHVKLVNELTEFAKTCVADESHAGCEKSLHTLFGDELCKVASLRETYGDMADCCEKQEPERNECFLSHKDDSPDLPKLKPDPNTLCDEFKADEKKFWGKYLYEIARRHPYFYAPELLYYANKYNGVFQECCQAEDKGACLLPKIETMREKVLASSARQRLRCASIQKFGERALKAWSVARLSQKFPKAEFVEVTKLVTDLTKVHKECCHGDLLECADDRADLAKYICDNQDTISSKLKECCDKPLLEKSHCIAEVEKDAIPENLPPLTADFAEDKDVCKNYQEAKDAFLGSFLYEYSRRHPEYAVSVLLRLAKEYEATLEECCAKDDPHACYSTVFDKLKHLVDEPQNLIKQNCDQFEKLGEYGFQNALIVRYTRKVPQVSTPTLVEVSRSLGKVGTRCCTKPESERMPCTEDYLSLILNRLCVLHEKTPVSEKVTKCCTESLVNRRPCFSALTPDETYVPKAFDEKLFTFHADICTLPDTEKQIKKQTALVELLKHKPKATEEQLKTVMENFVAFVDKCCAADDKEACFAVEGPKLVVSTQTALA

| SMILES | MIC ([1]; both isolates, 24 h) [µg/mL] | IC50 ([1]; range over isolates, read-out: Dm) [µg/mL] | MIC (C. albicans 98-234; [4]) [µg/mL] | IC50 (C. albicans 98-234; [5]) [µg/mL] | MIC (C. albicans 98-17; [4]) [µg/mL] | IC50 (C. albicans 98-17; [5]) [µg/mL] | A∞ (absorbance at 412 nm) (4% BSA) | 100 k (absorbance change at 412 nm) (4% BSA; room temperature) [min⁻¹] | 100 · k (AmB release, first-order fit) ([2]; 5 mM HEPES) [h⁻¹] | 100 · k (AmB release, first-order fit) ([2]; 4% BSA) [h⁻¹] | CAC ([3]; in 4% BSA) [µM] | CAC ([3]; in HEPES) [μMA] |
| --- | --- | --- | --- | --- | --- | --- | --- | --- | --- | --- | --- | --- |
| Nc1nc(=O)[nH]cc1F [5-FC, 5-fluorocytosine] | 0.1 | 0.04 to 0.07 | 0.1 | 39.8 ± 0.1 | 0.1 | 70.7 ± 7.3 |  |  |  |  |  |  |
| C[C@@H]1[C@H](O)[C@@H](C)/C=C/C=C/C=C/C=C/C=C/C=C/C=C/[C@H](O[C@@H]2O[C@H](C)[C@@H](O)[C@H](N)[C@@H]2O)C[C@@H]2O[C@](O)(C[C@@H](O)C[C@@H](O)[C@H](O)CC[C@@H](O)C[C@@H](O)CC(=O)O[C@H]1C)C[C@H](O)[C@H]2C(=O)O [Free AmB, Amphotericin B] |  |  |  |  |  |  | 0.77 | 3.25 ± 0.23 | 1.01 ± 0.10 | 3.72 ± 0.04 | 10 | 1 |
